Tests used:
[1] = target: T1, tubulin (α/β-tubulin heterodimer) (Sus scrofa, UniProt P02550+P02554); assay: cell-free tubulin polymerization assay (absorbance at […] nm), enhancement; assay type: biochemical
T1 construct: gene TUBA1A; with α/β-tubulin heterodimer

[2] = target: T1, tubulin (α/β-tubulin heterodimer); assay: cell-free tubulin polymerization assay (absorbance at […] nm), inhibition; assay type: biochemical

T1 sequence (P02550 whole entry): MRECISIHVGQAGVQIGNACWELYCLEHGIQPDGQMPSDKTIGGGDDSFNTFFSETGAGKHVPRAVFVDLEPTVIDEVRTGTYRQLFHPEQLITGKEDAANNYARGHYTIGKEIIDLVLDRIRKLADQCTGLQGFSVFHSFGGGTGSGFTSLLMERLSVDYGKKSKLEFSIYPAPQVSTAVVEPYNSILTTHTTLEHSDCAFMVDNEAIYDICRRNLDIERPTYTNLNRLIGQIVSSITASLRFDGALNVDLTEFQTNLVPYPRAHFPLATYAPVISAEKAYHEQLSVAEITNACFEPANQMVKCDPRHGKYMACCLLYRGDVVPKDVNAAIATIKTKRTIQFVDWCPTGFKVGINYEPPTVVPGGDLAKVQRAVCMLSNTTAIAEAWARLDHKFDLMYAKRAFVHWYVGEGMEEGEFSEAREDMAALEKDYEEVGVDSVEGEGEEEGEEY
T1 sequence (P02554 whole entry): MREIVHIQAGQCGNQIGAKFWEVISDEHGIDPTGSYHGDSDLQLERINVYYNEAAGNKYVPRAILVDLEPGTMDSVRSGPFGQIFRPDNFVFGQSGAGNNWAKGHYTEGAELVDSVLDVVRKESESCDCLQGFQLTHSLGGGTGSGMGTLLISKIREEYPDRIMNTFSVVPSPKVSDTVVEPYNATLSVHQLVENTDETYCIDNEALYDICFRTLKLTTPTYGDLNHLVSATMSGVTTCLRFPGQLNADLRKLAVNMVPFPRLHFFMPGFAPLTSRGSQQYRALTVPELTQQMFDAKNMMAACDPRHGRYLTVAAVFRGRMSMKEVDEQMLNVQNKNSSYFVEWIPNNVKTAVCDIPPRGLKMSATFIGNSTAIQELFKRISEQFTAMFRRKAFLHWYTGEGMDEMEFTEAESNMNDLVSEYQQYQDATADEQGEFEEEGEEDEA

| SMILES | cell-free tubulin polymerization assay (absorbance at 340 nm), enhancement [1] | cell-free tubulin polymerization assay (absorbance at 340 nm), inhibition [2] |
| --- | --- | --- |
| CC(=O)O[C@H]1C(=O)[C@@]2(C)[C@H]([C@H](OC(=O)c3ccccc3)[C@]3(O)C[C@H](OC(=O)[C@H](O)[C@@H](NC(=O)c4ccccc4)c4ccccc4)C(C)=C1C3(C)C)[C@]1(OC(C)=O)CO[C@@H]1C[C@@H]2O [paclitaxel] | Paclitaxel enhanced microtubule assembly and mitotic spindle formation, whereas LTP-1 and vincristine disrupted microtubule formation (Fig. 2A) | – |
| COc1ccc(S(=O)(=O)Nc2ccccc2-c2ccc(C#N)cc2)cc1 [LTP-1] | – | LTP-1 acted like vincristine, to inhibit tubulin polymerization in a concentration-dependent manner |
